Results: PubChem BioAssay (NCI)
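Growth conditions: 96-well plates. Treatment: test compound, 48 hours, 5 concentrations. Analysis: linear interpolation between bracketing concentrations; unreached endpoints set to highest concentration. GI50 is the concentration that inhibits growth by half. TGI: concentration producing complete growth inhibition.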

Columns and labels:
Test in all cases: NCI anticancer screen, dose series, 48 h
[1] = test system: 786-0 renal
[2] = test system: A498 renal
[3] = test system: ACHN renal
[4] = test system: CAKI-1 renal
[5] = test system: CCRF-CEM leukemia
[6] = test system: COLO 205 colon
[7] = test system: DLD-1 colon
[8] = test system: DMS 114 small cell lung
[9] = test system: DMS 273 small cell lung
[10] = test system: HCC-2998 colon
[11] = test system: HCT-15 colon
[12] = test system: HL-60(TB) leukemia
[13] = test system: HOP-18 NSCLC
[14] = test system: HOP-62 NSCLC
[15] = test system: HT29 colon
[16] = test system: IGROV1 ovarian
[17] = test system: K-562 leukemia
[18] = test system: KM12 colon
[19] = test system: KM20L2 colon
[20] = test system: LXFL 529 NSCLC
[21] = test system: M14 melanoma
[22] = test system: MALME-3M melanoma
[23] = test system: MOLT-4 leukemia
[24] = test system: NCI-H226 lung
[25] = test system: NCI-H23 lung
[26] = test system: NCI-H460 lung
[27] = test system: NCI-H522 lung
[28] = test system: OVCAR-3 ovarian
[29] = test system: OVCAR-4 ovarian
[30] = test system: OVCAR-5 ovarian
[31] = test system: OVCAR-8 ovarian
[32] = test system: RPMI-8226 leukemia
[33] = test system: RXF-631 renal
[34] = test system: SF-268 CNS
[35] = test system: SF-295 CNS
[36] = test system: SF-539 CNS
[37] = test system: SK-MEL-2 melanoma
[38] = test system: SK-MEL-28 melanoma
[39] = test system: SK-MEL-5 melanoma
[40] = test system: SK-OV-3 ovarian
[41] = test system: SN12C renal
[42] = test system: SNB-19 CNS
[43] = test system: SNB-75 CNS
[44] = test system: SNB-78 CNS
[45] = test system: SR leukemia
[46] = test system: SW-620 colon
[47] = test system: U251 CNS
[48] = test system: UACC-257 melanoma
[49] = test system: UACC-62 melanoma
[50] = test system: UO-31 renal
[51] = test system: A549 NSCLC
[52] = test system: EKVX NSCLC
[53] = test system: HCT-116 colon
[54] = test system: HOP-92 NSCLC
[55] = test system: LOX IMVI melanoma
[56] = test system: RXF 393 renal

## COc1cccc(N2C(=O)/C(=C/c3ccc(N(CCC#N)CCC#N)cc3)N=C2c2cc([N+](=O)[O-])ccc2Cl)c1
[1]
  TGI: > 100 µM
[2]
  TGI: > 100 µM
[3]
  TGI: > 100 µM
[4]
  TGI: > 100 µM
[5]
  TGI: > 100 µM
[6]
  TGI: 62.4 µM
[7]
  TGI: > 100 µM
[8]
  TGI: > 100 µM
[9]
  TGI: > 100 µM
[10]
  TGI: > 100 µM
[11]
  TGI: > 100 µM
[12]
  TGI: > 100 µM
[13]
  TGI: > 100 µM
[14]
  TGI: > 100 µM
[15]
  TGI: > 100 µM
[16]
  TGI: > 100 µM
[17]
  TGI: > 100 µM
[18]
  TGI: > 100 µM
[19]
  TGI: > 100 µM
[20]
  TGI: > 100 µM
[21]
  TGI: > 100 µM
[22]
  TGI: > 100 µM
[23]
  TGI: 68.2 µM
[24]
  TGI: > 100 µM
[25]
  TGI: > 100 µM
[26]
  TGI: > 100 µM
[27]
  TGI: > 100 µM
[28]
  TGI: > 100 µM
[29]
  TGI: > 100 µM
[30]
  TGI: > 100 µM
[31]
  TGI: > 100 µM
[32]
  TGI: > 100 µM
[33]
  TGI: > 100 µM
[34]
  TGI: > 100 µM
[35]
  TGI: > 100 µM
[36]
  TGI: > 100 µM
[37]
  TGI: > 100 µM
[38]
  TGI: > 100 µM
[39]
  TGI: > 100 µM
[40]
  TGI: > 100 µM
[41]
  TGI: > 100 µM
[42]
  TGI: > 100 µM
[43]
  TGI: > 100 µM
[44]
  TGI: > 100 µM
[45]
  TGI: > 100 µM
[46]
  TGI: > 100 µM
[47]
  TGI: > 100 µM
[48]
  TGI: > 100 µM
[49]
  TGI: > 100 µM
[50]
  TGI: > 100 µM

## CC[O-].CC[O-].COc1ccc(C(=O)[CH-]C(C)=O)cc1OC.COc1ccc(C(=O)[CH-]C(C)=O)cc1OC.[Ti+4]
[1]
  GI50: 48 µM
  TGI: > 100 µM
[2]
  GI50: 29.6 µM
  TGI: 75.2 µM
[51]
  GI50: > 100 µM
  TGI: > 100 µM
[3]
  GI50: 35.9 µM
  TGI: > 100 µM
[4]
  GI50: 33 µM
  TGI: 96.1 µM
[5]
  GI50: 27.8 µM
  TGI: > 100 µM
[6]
  GI50: > 100 µM
  TGI: > 100 µM
[7]
  GI50: 77.5 µM
  TGI: > 100 µM
[8]
  GI50: > 100 µM
  TGI: > 100 µM
[9]
  GI50: 44.4 µM
  TGI: > 100 µM
[52]
  GI50: 24.6 µM
  TGI: 79.6 µM
[10]
  GI50: > 100 µM
  TGI: > 100 µM
[53]
  GI50: > 100 µM
  TGI: > 100 µM
[11]
  GI50: 90.1 µM
  TGI: > 100 µM
[12]
  GI50: 43.3 µM
  TGI: > 100 µM
[13]
  GI50: 29.8 µM
  TGI: > 100 µM
[14]
  GI50: 46.2 µM
  TGI: > 100 µM
[54]
  GI50: 32.1 µM
  TGI: 65.9 µM
[15]
  GI50: 47.8 µM
  TGI: > 100 µM
[16]
  GI50: 54.8 µM
  TGI: > 100 µM
[17]
  GI50: > 100 µM
  TGI: > 100 µM
[19]
  GI50: 53.1 µM
  TGI: > 100 µM
[55]
  GI50: 80.3 µM
  TGI: > 100 µM
[20]
  GI50: 38.7 µM
  TGI: > 100 µM
[21]
  GI50: 83.8 µM
  TGI: > 100 µM
[22]
  GI50: 35.1 µM
  TGI: 86.6 µM
[23]
  GI50: 35.4 µM
  TGI: > 100 µM
[24]
  GI50: > 100 µM
  TGI: > 100 µM
[25]
  GI50: > 100 µM
  TGI: > 100 µM
[26]
  GI50: 55.8 µM
  TGI: > 100 µM
[28]
  GI50: 46.4 µM
  TGI: > 100 µM
[29]
  GI50: > 100 µM
  TGI: > 100 µM
[30]
  GI50: 53.8 µM
  TGI: > 100 µM
[31]
  GI50: 81.9 µM
  TGI: > 100 µM
[32]
  GI50: 44.6 µM
  TGI: > 100 µM
[56]
  GI50: 34.1 µM
  TGI: 99.7 µM
[33]
  GI50: 49.4 µM
  TGI: > 100 µM
[34]
  GI50: > 100 µM
  TGI: > 100 µM
[35]
  GI50: 33.9 µM
  TGI: > 100 µM
[36]
  GI50: 38.9 µM
  TGI: > 100 µM
[37]
  GI50: 78.3 µM
  TGI: > 100 µM
[38]
  GI50: > 100 µM
  TGI: > 100 µM
[39]
  GI50: > 100 µM
  TGI: > 100 µM
[41]
  GI50: > 100 µM
  TGI: > 100 µM
[42]
  GI50: 73 µM
  TGI: > 100 µM
[43]
  GI50: 26.9 µM
  TGI: > 100 µM
[44]
  GI50: 72.2 µM
  TGI: > 100 µM
[45]
  GI50: 31.1 µM
  TGI: 83.4 µM
[46]
  GI50: > 100 µM
  TGI: > 100 µM
[48]
  GI50: > 100 µM
  TGI: > 100 µM
[49]
  GI50: 56.5 µM
  TGI: > 100 µM
[50]
  GI50: 11.7 µM
  TGI: 49.7 µM
